This is an account of results in the NIST ThermoML archive (doi:10.1016/j.jct.2005.02.003).

± gives the expanded uncertainty stated by the source.

For data set [1] the following is noted: Crystal; Adiabatic calorimetry.
Data set [2] can be described thus: Molar enthalpy of transition or fusion. The conditions noted are these: Crystal; Adiabatic calorimetry.

As for `CC(C)COC(C)(C)C` [isobutyl tert-butyl ether], the Triple point temperature in data set [1] stood at 162.33 ± 0.05 K. In addition, in data set [2], the “Molar enthalpy of transition or fusion” value is 2.067 ± 0.012 kcal/mol.
